In patent publication US12653190B2, “Heteroaryl-triazole compounds as pesticides” (Bayer Aktiengesellschaft, priority 2020, dated 2026):

Key:
Type in all cases: in vivo
[1] = tested on: adult engorged female ticks (Rhipicephalus microplus); test: Rhipicephalus (Boophilus) microplus injection test; settings: 168 h, egg deposition monitored after 7 days, read-out: efficacy (infertile eggs); for pest or weed control at 4 µg/tick: 4 μg/tick injected; for pest or weed control at 20 µg/tick: 20 μg/tick injected
Experimental: Rhipicephalus (Boophilus) microplus—Iniectiontest
• Solvent: dimethyl sulfoxide
To produce a suitable preparation of active compound, 10 mg of active compound are dissolved in 0.5 mL solvent, and the concentrate is diluted with solvent to the desired concentration.
Five adult engorged female ticks (Rhipicephalus microplus) are injected with 1 μL compound solution into the abdomen. The ticks are transferred into replica plates and incubated in a climate chamber.
After 7 days egg deposition of fertile eggs is monitored. Eggs where fertility is not visible are stored in a climate chamber till hatching after about 42 days. An efficacy of 100% means all eggs are infertile; 0% means all eggs are fertile.

[2] = tested on: larvae of the banded cucumber beetle (Diabrotica balteata); test: Diabrotica balteata spray test; settings: 168 h, 100 g/ha (=32 μg/well), after 7 days, wheat seeds, read-out: efficacy (seedling growth)
Experimental: Diabrotica balteata—Spray Test
(§1) • Solvent: 78.0 parts by weight of acetone • 1.5 parts by weight of dimethylformamide • Emulsifier: alkylarylpolyglycol ether
(§2) To produce a suitable preparation of active compound, 1 part by weight of active compound is mixed with the stated amount of solvent, and the concentrate is diluted with water, containing an emulsifier concentration of 1000 ppm, to the desired concentration. Further test concentrations are prepared by dilution with emulsifier containing water.
Soaked wheat seeds (Triticum aestivum) are placed in a multiple well plate filled with agar and some water and are incubated for 1 day to germinate (5 seeds per well). The germinated wheat seeds are sprayed with a test solution containing the desired concentration of the active ingredient. Afterwards each unit is infected with 10-20 larvae of the banded cucumber beetle (Diabrotica balteata).
After 7 days efficacy in % is determined. 100% means all the seedlings have grown up like in the untreated, uninfected control; 0% means none of the seedlings have grown.

[3] = tested on: fall armyworm larvae (Spodoptera frugiperda); test: Spodoptera frugiperda spray test; settings: in Zea mays, 168 h
Experimental: Spodoptera frugiperda—Spray Test
• Solvent: 78.0 parts by weight acetone • 1.5 parts by weight dimethylformamide • Emulsifier: alkylarylpolyglycol ether
as §2, with “solvents” for “solvent,”, “and” for “and the concentrate”
Maize (Zea mays) leaf sections are sprayed with a preparation of the active ingredient of the desired concentration. Once dry, the leaf sections are infested with fall armyworm larvae (Spodoptera frugiperda). After 7 days mortality in % is determined. 100% means all caterpillars have been killed and 0% means none of the caterpillars have been killed.

[4] = tested on: larvae of the southern green stink bug (Nezara viridula); test: Nezara viridula spray test; settings: 96 h, after 4 days, barley plants
Experimental: Nezara viridula—Spray Test
as §1, §2
Barley plants (Hordeum vulgare) are sprayed with a test solution containing the desired concentration of the active ingredient and are infested with larvae of the southern green stink bug (Nezara viridula).
After 4 days mortality in % is determined. 100% means all the stink bugs have been killed; 0% means none of the stink bugs have been killed.

SMILES	pest or weed control at 32 µg/disc, 100 g/ha [2]	mortality at 100 g/ha [3]	also measured
CC(=O)Oc1cc(Cl)cc(C(=O)N[C@@H](C)c2ncnn2-c2ccc(C#N)cn2)c1 [Example I-11]			pest or weed control at 4 µg/tick [1]: 80%; pest or weed control at 20 µg/tick [1]: 80%
Cc1nc([C@H](C)NC(=O)c2cc(OC(C)c3cccc(Cl)c3)cc(C(F)(F)F)c2)n(-c2ccc(C#N)cn2)n1 (stereo partly drawn) [Example I-12, 3-[1-(3-Chlorophenyl)ethoxy]-N-{(1S)-1-[1-(5-cyanopyridin-2-yl)-3-methyl-1H-1,2,4-triazol-5-yl]ethyl}-5-(trifluoromethyl)benzamide]			pest or weed control at 4 µg/tick [1]: 100%; pest or weed control at 20 µg/tick [1]: 100%
Cc1nc([C@H](C)NC(=O)c2cc(OCc3cccc(Cl)c3)cc(C(F)(F)F)c2)n(-c2ccc(C#N)cn2)n1 [Example I-13, 3-[(3-Chlorobenzyl)oxy]-N-{(1S)-1-[1-(5-cyanopyridin-2-yl)-3-methyl-1H-1,2,4-triazol-5-yl]ethyl}-5-(trifluoromethyl)benzamide]	100%		pest or weed control at 4 µg/tick [1]: 80%; pest or weed control at 20 µg/tick [1]: 100%
Cc1nc([C@H](C)NC(=O)c2cc(OC(C)c3ccccc3Cl)cc(C(F)(F)F)c2)n(-c2ccc(C#N)cn2)n1 (stereo partly drawn) [Example I-14, 3-[1-(2-Chlorophenyl)ethoxy]-N-{(1S)-1-[1-(5-cyanopyridin-2-yl)-3-methyl-1H-1,2,4-triazol-5-yl]ethyl}-5-(trifluoromethyl)benzamide]			pest or weed control at 4 µg/tick [1]: 100%; pest or weed control at 20 µg/tick [1]: 100%
Cc1nc([C@H](C)NC(=O)c2cc(OCc3ccccc3Cl)cc(C(F)(F)F)c2)n(-c2ccc(C#N)cn2)n1 [Example I-16, 3-[(2-Chlorobenzyl)oxy]-N-{(1S)-1-[1-(5-cyanopyridin-2-yl)-3-methyl-1H-1,2,4-triazol-5-yl]ethyl}(trifluoromethyl)benzamide]			pest or weed control at 4 µg/tick [1]: 100%; pest or weed control at 20 µg/tick [1]: 100%
Cc1nc([C@H](C)NC(=O)c2cc(OCc3ccccc3)cc(C(F)(F)F)c2)n(-c2ccc(C#N)cn2)n1 [Example I-18, 3-(Benzyloxy)-N-{(1S)-1-[1-(5-cyanopyridin-2-yl)-3-methyl-1H-1,2,4-triazol-5-yl]ethyl}-5-(trifluoromethyl)benzamide]	100%		pest or weed control at 4 µg/tick [1]: 100%
Cc1nc([C@H](C)NC(=O)c2cc(OCc3ccc(Cl)cc3)cc(C(F)(F)F)c2)n(-c2ccc(C#N)cn2)n1 [Example I-20, 3-[(4-Chlorobenzyl)oxy]-N-{(1S)-1-[1-(5-cyanopyridin-2-yl)-3-methyl-1H-1,2,4-triazol-5-yl]ethyl}-5-(trifluoromethyl)benzamide]			pest or weed control at 4 µg/tick [1]: 100%
Cc1nc([C@H](C)NC(=O)c2cc(O)cc(C(F)(F)F)c2)n(-c2ccc(C#N)cn2)n1 [Example I-47, N-{(1S)-1-[1-(5-Cyanopyridin-2-yl)-3-methyl-1H-1,2,4-triazol-5-yl]ethyl}-3-hydroxy-5-(trifluoromethyl)benzamide]			pest or weed control at 4 µg/tick [1]: 100%; pest or weed control at 20 µg/tick [1]: 100%
C[C@H](NC(=O)c1cc(Br)cc(OC2CC2)c1)c1ncnn1-c1ncc(C#N)s1 [Example I-49]	100%	100%	
C[C@H](NC(=O)c1cc(Cl)cc(CC#N)c1)c1ncnn1-c1ncc(C#N)s1 [Example I-50]	100%		
C[C@H](NC(=O)c1cc(C(C)(C)C#N)cc(S(C)(=O)=O)c1)c1ncnn1-c1ncc(C#N)s1 [Example I-55]		100%	mortality at 100 g/ha ([4]; 100 g/ha): 90%; mortality at 500 g/ha [4]: 90%
C[C@H](NC(=O)c1cc(CC#N)cc(OC(F)(F)F)c1)c1ncnn1-c1cnc(C#N)cn1 [Example I-57]		100%	
C[C@H](NC(=O)c1cc(Br)cc(OCC2CC2(Cl)Cl)c1)c1ncnn1-c1ncc(C#N)s1 (stereo partly shown) [Example I-62]	100%		
C[C@H](NC(=O)c1cc(Br)cc(OCC2CC2(F)F)c1)c1ncnn1-c1ncc(C#N)s1 (stereo partly shown) [Example I-63]	100%		
C[C@H](NC(=O)c1cc(OC2CC2)cc(OC(F)(F)F)c1)c1ncnn1-c1ncc(C#N)s1 [Example I-64]	100%	100%	mortality at 500 g/ha [4]: 100%
C[C@H](NC(=O)c1cc(OC(F)(F)F)cc(C(C)(C)C#N)c1)c1nc(C2CC2)nn1-c1ncc(C#N)s1 [Example I-67]	100%	100%	
C[C@H](NC(=O)c1cc(Cl)nc(C(C)(C)C#N)c1)c1nc(C2CC2)nn1-c1ncc(C#N)s1 [Example I-69]	100%	100%	
Cc1nc([C@H](C)NC(=O)c2cc(Cl)nc(C(C)(C)C#N)c2)n(-c2ncc(C#N)s2)n1 [Example I-70]	100%	100%	mortality at 500 g/ha [4]: 100%

SMILES	pest or weed control at 32 µg/disc, 100 g/ha [2]	mortality at 100 g/ha [3]	also measured
C[C@H](NC(=O)c1cc(Cl)nc(C(C)(C)C#N)c1)c1ncnn1-c1ncc(C#N)s1 [Example I-71]	100%	100%	mortality at 500 g/ha [4]: 100%
C[C@H](NC(=O)c1cc(OC(F)(F)F)cc(C(C)(C)C#N)c1)c1nc(C2CC2)nn1-c1cc(C#N)ncn1 [Example I-76]	100%	100%	
C[C@H](NC(=O)c1cc(Br)cc(C(F)(F)c2ccc(F)cc2)c1)c1ncnn1-c1cnc(C#N)cn1 [Example I-77]	100%	100%	
C[C@H](NC(=O)c1cc(Br)cc(C(F)(F)c2ccc(F)cc2)c1)c1ncnn1-c1ncc(C#N)s1 [Example I-78]	100%	100%	
Cc1nc([C@H](C)NC(=O)c2cc(Br)cc(C(F)(F)c3ccc(F)cc3)c2)n(-c2ncc(C#N)s2)n1 [Example I-79]	100%	100%	
C[C@H](NC(=O)c1cc(Br)cc(C(F)(F)c2ccc(F)cc2)c1)c1ncnn1-c1cc(C#N)ncn1 [Example I-80]	100%	100%	
C[C@H](NC(=O)c1cc(Cl)cc(C(=O)C2CC2)c1)c1ncnn1-c1cc(C#N)ncn1 [Example I-81]	100%	100%	
Cc1nc([C@H](C)NC(=O)c2cc(Cl)cc(C(=O)C3CC3)c2)n(-c2ncc(C#N)s2)n1 [Example I-82]	100%	100%	
C[C@H](NC(=O)c1cc(Cl)cc(C(=O)C2CC2)c1)c1ncnn1-c1ncc(C#N)s1 [Example I-83]	100%	100%	
C[C@H](NC(=O)c1cc(Br)cc(OC(C)(C)C#N)c1)c1ncnn1-c1cnc(C#N)cn1 [Example I-84]		100%	
C[C@H](NC(=O)c1cc(Br)cc(OC(C)(C)C#N)c1)c1ncnn1-c1cc(C#N)ncn1 [Example I-85]		100%	
C[C@H](NC(=O)c1cc(OC2CC2)cc(OC(F)(F)F)c1)c1ncnn1-c1cnc(C#N)cn1 [Example I-86]	100%	100%	
C[C@H](NC(=O)c1cc(OC2CC2)cc(OC(F)(F)F)c1)c1ncnn1-c1cc(C#N)ncn1 [Example I-87]	80%	100%	
Cc1nc([C@H](C)NC(=O)c2cc(OC3CC3)cc(OC(F)(F)F)c2)n(-c2ncc(C#N)s2)n1 [Example I-88]	100%	100%	
C[C@H](NC(=O)c1cc(OC(C)(C)C#N)cc(C2CC2)c1)c1ncnn1-c1ncc(C#N)s1 [Example I-89]	100%		
Cc1nc([C@H](C)NC(=O)c2cc(OC(C)(C)C#N)cc(C3CC3)c2)n(-c2ncc(C#N)s2)n1 [Example I-90]	100%		
C[C@H](NC(=O)c1cc(OC(C)(C)C#N)cc(C2CC2)c1)c1ncnn1-c1cc(C#N)ncn1 [Example I-92]		100%	
C[C@H](NC(=O)c1cc(C(C)(C)C#N)cc(S(C)(=O)=O)c1)c1nc(C2CC2)nn1-c1ncc(C#N)s1 [Example I-93]	80%	100%	
